Experiments:
lambsquarters [1] = test: Test Example 4: herbicidal effect by soil treatment (Table 19, symbol O); format: in vivo, lambsquarters (Chenopodium album)
Outline: (§1)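 Three weeks of greenhouse growth at 25° C. to 30° C. followed a uniform surface spray of water-diluted emulsion at a predetermined herbicide amount. Seeds had been sown beforehand under about 1.5 cm of sterilized diluvial soil. Grading followed criteria set out in an earlier test.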

oval-leafed pondweed = test: Test Example 1: herbicidal activity, application before weed generation under submerged conditions (Table 16, symbol C); format: in vivo, oval-leafed pondweed (Monochoria vaginalis); conditions: 320 g/ha applied herbicide
Outline: (§2)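 Emulsion formulation, water-diluted to set dose, was put onto the flooded surface (4 cm depth, alluvial soil) the same day weeds were sown and 2.5-leaf rice transplanted. After 3 weeks at 25-30 °C under glass, each species was rated 0 (≤5% kill) to 5 (≥90% kill).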

redroot pigweed = test: Test Example 4: herbicidal effect by soil treatment (Table 19, symbol N); format: in vivo, redroot pigweed (Amaranthus retroflexus)
Outline: as §1

windgrass [2] = test: Test Example 4: herbicidal effect by soil treatment (Table 19, symbol L); format: in vivo, windgrass (Apera spica-venti)
Outline: as §1

persian speedwell [3] = test: Test Example 4: herbicidal effect by soil treatment (Table 19, symbol R); format: in vivo, Persian speedwell (Veronica persica)
Outline: as §1

rice flat sedge = test: Test Example 3: herbicidal effect by foliage application, Wagner pot (Table 18, symbol E); format: in vivo, rice flat sedge (Cyperus iria)
Outline: (§3)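 Plants were sown in alluvial soil held under 0.1–0.5 cm standing water and grown 14 days in a greenhouse at 25–30 °C. An emulsifiable formulation, water-diluted to the set dose, was then sprayed onto the foliage, and effects were scored three weeks later using previously defined criteria.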

Japanese bulrush = test: Test Example 1: herbicidal activity, application before weed generation under submerged conditions (Table 16, symbol B); format: in vivo, Japanese bulrush (Schoenoplectus juncoides); conditions: 320 g/ha applied herbicide
Outline: as §2

barnyard grass [4] = test: Test Example 3: herbicidal effect by foliage application, Wagner pot (Table 18, symbol H); format: in vivo, barnyard grass (Echinochloa crus-galli)
Outline: as §3

Chinese sprangletop = test: Test Example 3: herbicidal effect by foliage application, Wagner pot (Table 18, symbol D); format: in vivo, chinese sprangletop (Leptochloa chinensis)
Outline: as §3

late watergrass = test: Test Example 1: herbicidal activity, application before weed generation under submerged conditions (Table 16, symbol A); format: in vivo, late watergrass (Echinochloa oryzicola); conditions: 320 g/ha applied herbicide
Outline: as §2

blackgrass [5] = test: Test Example 4: herbicidal effect by soil treatment (Table 19, symbol J); format: in vivo, blackgrass (Alopecurus myosuroides)
Outline: as §1

barnyard grass [6] = test: Test Example 4: herbicidal effect by soil treatment (Table 19, symbol H); format: in vivo, barnyard grass (Echinochloa crus-galli)
Outline: as §1

green foxtail [7] = test: Test Example 4: herbicidal effect by soil treatment (Table 19, symbol G); format: in vivo, green foxtail (Setaria viridis)
Outline: as §1

Italian ryegrass [8] = test: Test Example 4: herbicidal effect by soil treatment (Table 19, symbol K); format: in vivo, Italian ryegrass (Lolium multiflorum)
Outline: as §1

wild oat [9] = test: Test Example 4: herbicidal effect by soil treatment (Table 19, symbol I); format: in vivo, wild oat (Avena fatua)
Outline: as §1

southern crabgrass [10] = test: Test Example 4: herbicidal effect by soil treatment (Table 19, symbol F); format: in vivo, southern crabgrass (Digitaria ciliaris)
Outline: as §1

velvetleaf [11] = test: Test Example 4: herbicidal effect by soil treatment (Table 19, symbol M); format: in vivo, velvetleaf (Abutilon theophrasti)
Outline: as §1

chickweed = test: Test Example 4: herbicidal effect by soil treatment (Table 19, symbol P); format: in vivo, common chickweed (Stellaria media); conditions: amount of applied herbicide 320 g/ha
Outline: as §1

persian speedwell [12] = test: Test Example 5: herbicidal effect by foliage application, plastic box (Table 20, symbol R); format: in vivo, Persian speedwell (Veronica persica); conditions: foliage application, 320 g/ha, 3 weeks after application
Outline: (§4)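 Plants sown in sterilized diluvial soil and grown 14 days in a greenhouse at 25° C to 30° C, then sprayed on the foliage with the compound's emulsion diluted in water to a predetermined herbicide amount. Injury to weeds and crops scored three weeks after application on a visual rating scale.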

barnyard grass [13] = test: Test Example 5: herbicidal effect by foliage application, plastic box (Table 20, symbol H); format: in vivo, barnyard grass (Echinochloa crus-galli); conditions: foliage application, 320 g/ha, 3 weeks after application
Outline: as §4

wild oat [14] = test: Test Example 5: herbicidal effect by foliage application, plastic box (Table 20, symbol I); format: in vivo, wild oat (Avena fatua); conditions: foliage application, 320 g/ha, 3 weeks after application
Outline: as §4

southern crabgrass [15] = test: Test Example 5: herbicidal effect by foliage application, plastic box (Table 20, symbol F); format: in vivo, southern crabgrass (Digitaria ciliaris); conditions: foliage application, 320 g/ha, 3 weeks after application
Outline: as §4

blackgrass [16] = test: Test Example 5: herbicidal effect by foliage application, plastic box (Table 20, symbol J); format: in vivo, blackgrass (Alopecurus myosuroides); conditions: foliage application, 320 g/ha, 3 weeks after application
Outline: as §4

windgrass [17] = test: Test Example 5: herbicidal effect by foliage application, plastic box (Table 20, symbol L); format: in vivo, windgrass (Apera spica-venti); conditions: foliage application, 320 g/ha, 3 weeks after application
Outline: as §4

lambsquarters [18] = test: Test Example 5: herbicidal effect by foliage application, plastic box (Table 20, symbol O); format: in vivo, lambsquarters (Chenopodium album); conditions: foliage application, 320 g/ha, 3 weeks after application
Outline: as §4

velvetleaf [19] = test: Test Example 5: herbicidal effect by foliage application, plastic box (Table 20, symbol M); format: in vivo, velvetleaf (Abutilon theophrasti); conditions: foliage application, 320 g/ha, 3 weeks after application
Outline: as §4

Italian ryegrass [20] = test: Test Example 5: herbicidal effect by foliage application, plastic box (Table 20, symbol K); format: in vivo, Italian ryegrass (Lolium multiflorum); conditions: foliage application, 320 g/ha, 3 weeks after application
Outline: as §4

green foxtail [21] = test: Test Example 5: herbicidal effect by foliage application, plastic box (Table 20, symbol G); format: in vivo, green foxtail (Setaria viridis); conditions: foliage application, 320 g/ha, 3 weeks after application
Outline: as §4

[22] = amount of applied herbicide 320 g/ha

Q: Which results are given for COc1ccc(-c2sc3ccc(F)cc3c2-c2c(O)c(C)nn(C)c2=O)cc1Cl [2-370]?
A: herbicidal effect, O: lambsquarters (lambsquarters [1]; [22]): 4 (Herbicidal rate of 70% or more and less than 90%); Herbicidal effect on C: oval-leafed pondweed (grade 0-5) (oval-leafed pondweed): 0 (Herbicidal rate of 5% or less (almost no effect)); herbicidal effect, N: redroot pigweed (redroot pigweed; [22]): 2 (Herbicidal rate of 20% or more and less than 40%); herbicidal effect, L: windgrass (windgrass [2]; [22]): 0 (Herbicidal rate of 5% or less (almost no effect)); herbicidal effect, R: persian speedwell (persian speedwell [3]; [22]): 4 (Herbicidal rate of 70% or more and less than 90%); herbicidal effect on E: rice flat sedge (rice flat sedge; [22]): 5 (Herbicidal rate of 90% or more (almost completely withered)); Herbicidal effect on B: Japanese bulrush (grade 0-5) (Japanese bulrush): 0 (Herbicidal rate of 5% or less (almost no effect)); herbicidal effect on H: barnyard grass (barnyard grass [4]; [22]): 3 (Herbicidal rate of 40% or more and less than 70%); herbicidal effect on D: Chinese sprangletop (Chinese sprangletop; [22]): 2 (Herbicidal rate of 20% or more and less than 40%); Herbicidal effect on A: late watergrass (grade 0-5) (late watergrass): 3 (Herbicidal rate of 40% or more and less than 70%); herbicidal effect, J: blackgrass (blackgrass [5]; [22]): 0 (Herbicidal rate of 5% or less (almost no effect)); herbicidal effect, H: barnyard grass (barnyard grass [6]; [22]): 0 (Herbicidal rate of 5% or less (almost no effect)); herbicidal effect, G: green foxtail (green foxtail [7]; [22]): 0 (Herbicidal rate of 5% or less (almost no effect)); herbicidal effect, K: Italian ryegrass (Italian ryegrass [8]; [22]): 0 (Herbicidal rate of 5% or less (almost no effect)); herbicidal effect, I: wild oat (wild oat [9]; [22]): 0 (Herbicidal rate of 5% or less (almost no effect)); herbicidal effect, F: southern crabgrass (southern crabgrass [10]; [22]): 0 (Herbicidal rate of 5% or less (almost no effect)); herbicidal effect, M: velvetleaf (velvetleaf [11]; [22]): 1 (Herbicidal rate of 5% or more and less than 20%); herbicidal effect, P: chickweed (chickweed): 3 (Herbicidal rate of 40% or more and less than 70%)

Q: With C=CCSCc1ccc(-c2sc3ccccc3c2-c2c(O)c(C)nn(C)c2=O)cc1 [1-245] as the compound, how does the “O: lambsquarters, herbicidal effect rating” value (lambsquarters [1]; AAH 320 g/ha) read?
A: The value was 3 (Herbicidal rate of 40% or more and less than 70%).

Q: What about the “Herbicidal effect on C: oval-leafed pondweed (grade 0-5)” value (oval-leafed pondweed) of the same compound?
A: The value was 0 (Herbicidal rate of 5% or less (almost no effect)).

Q: What about the “N: redroot pigweed, herbicidal effect rating” value (redroot pigweed; AAH 320 g/ha) of the same compound?
A: The value was 3 (Herbicidal rate of 40% or more and less than 70%).

Q: What about the “L: windgrass, herbicidal effect rating” value (windgrass [2]; AAH 320 g/ha) of the same compound?
A: Its value is 0 (Herbicidal rate of 5% or less (almost no effect)).

Q: What about the “R: persian speedwell, herbicidal effect rating” value (persian speedwell [3]; AAH 320 g/ha) of the same compound?
A: Its value is 4 (Herbicidal rate of 70% or more and less than 90%).

Q: What about the “effect on persian speedwell (R)” value (persian speedwell [12]) of the same compound?
A: Its value is 5 (Herbicidal rate of 90% or more (almost completely withered)).

Q: And the “herbicidal effect on E (rice flat sedge), rating 0-5” value (rice flat sedge; 320 g/ha)?
A: The value was 3 (Herbicidal rate of 40% or more and less than 70%).

Q: And the “effect on barnyard grass (H)” value (barnyard grass [13])?
A: The value was 5 (Herbicidal rate of 90% or more (almost completely withered)).

Q: What about the “effect on wild oat (I)” value (wild oat [14]) of the same compound?
A: Its value is 1 (Herbicidal rate of 5% or more and less than 20%).

Q: What about the “Herbicidal effect on B: Japanese bulrush (grade 0-5)” value (Japanese bulrush) of the same compound?
A: The value was 3 (Herbicidal rate of 40% or more and less than 70%).

Q: What about the “effect on southern crabgrass (F)” value (southern crabgrass [15]) of the same compound?
A: Its value is 3 (Herbicidal rate of 40% or more and less than 70%).

Q: And the “herbicidal effect on H (barnyard grass), rating 0-5” value (barnyard grass [4]; 320 g/ha)?
A: Its value is 5 (Herbicidal rate of 90% or more (almost completely withered)).

Q: And the “herbicidal effect on D (Chinese sprangletop), rating 0-5” value (Chinese sprangletop; 320 g/ha)?
A: Its value is 3 (Herbicidal rate of 40% or more and less than 70%).

Q: And the “effect on blackgrass (J)” value (blackgrass [16])?
A: Its value is 3 (Herbicidal rate of 40% or more and less than 70%).

Q: And the “Herbicidal effect on A: late watergrass (grade 0-5)” value (late watergrass)?
A: Its value is 3 (Herbicidal rate of 40% or more and less than 70%).

Q: What about the “J: blackgrass, herbicidal effect rating” value (blackgrass [5]; AAH 320 g/ha) of the same compound?
A: Its value is 0 (Herbicidal rate of 5% or less (almost no effect)).

Q: What about the “effect on windgrass (L)” value (windgrass [17]) of the same compound?
A: Its value is 4 (Herbicidal rate of 70% or more and less than 90%).

Q: What about the “H: barnyard grass, herbicidal effect rating” value (barnyard grass [6]; AAH 320 g/ha) of the same compound?
A: The value was 0 (Herbicidal rate of 5% or less (almost no effect)).

Q: And the “G: green foxtail, herbicidal effect rating” value (green foxtail [7]; AAH 320 g/ha)?
A: Its value is 0 (Herbicidal rate of 5% or less (almost no effect)).

Q: What about the “effect on lambsquarters (O)” value (lambsquarters [18]) of the same compound?
A: Its value is 5 (Herbicidal rate of 90% or more (almost completely withered)).

Q: What about the “K: Italian ryegrass, herbicidal effect rating” value (Italian ryegrass [8]; AAH 320 g/ha) of the same compound?
A: Its value is 2 (Herbicidal rate of 20% or more and less than 40%).

Q: What about the “I: wild oat, herbicidal effect rating” value (wild oat [9]; AAH 320 g/ha) of the same compound?
A: The value was 0 (Herbicidal rate of 5% or less (almost no effect)).

Q: And the “effect on velvetleaf (M)” value (velvetleaf [19])?
A: The value was 5 (Herbicidal rate of 90% or more (almost completely withered)).

Q: And the “effect on Italian ryegrass (K)” value (Italian ryegrass [20])?
A: The value was 4 (Herbicidal rate of 70% or more and less than 90%).

Q: And the “F: southern crabgrass, herbicidal effect rating” value (southern crabgrass [10]; AAH 320 g/ha)?
A: The value was 0 (Herbicidal rate of 5% or less (almost no effect)).

Q: And the “M: velvetleaf, herbicidal effect rating” value (velvetleaf [11]; AAH 320 g/ha)?
A: The value was 0 (Herbicidal rate of 5% or less (almost no effect)).

Q: And the “effect on green foxtail (G)” value (green foxtail [21])?
A: Its value is 4 (Herbicidal rate of 70% or more and less than 90%).

From patent publication US20230085307A1, “PYRIDAZINONE COMPOUND AND HERBICIDE” (NISSAN CHEMICAL CORPORATION, priority 2019, published 2023)
